From publication PMC10609963, “Targeting Lactate Dehydrogenase-B as a Strategy to Fight Cancer: Identification of Potential Inhibitors by In Silico Analysis and In Vitro Screening” (Pharmaceutics, 2023)
pIC50, pKi: −log10 of the molar value. Where two headings read alike, the source gives them in different places.

What was measured:
[1] = target: T1, Recombinant human LDH-B (Homo sapiens, UniProt P07195); experiment: NBT/PMS end-point colorimetric assay, 96-well, lactate to pyruvate; format: biochemical
T1 construct: gene LDHB; commercial recombinant protein (R&D Systems); homotetramer (LDH-1)

[2] = target: T1, Recombinant human LDH-B; experiment: NBT/PMS colorimetric kinetics, mixed-model inhibition fit; format: biochemical
Source text: NBT/PMS colorimetric kinetics, mixed-model inhibition fit on Recombinant human LDH-B

[3] = system: T2, C[C@H](O)C(=O)O; experiment: NBT/PMS colorimetric kinetics, Michaelis-Menten fit; format: biochemical, Homo sapiens; details: 1 mM NAD+, no inhibitor (control), pH 9.6, room temperature
T2 construct: commercial recombinant protein (R&D Systems); homotetramer (LDH-1)
Source text: (§1) NBT/PMS colorimetric kinetics, Michaelis-Menten fit on Recombinant human LDH-B

[4] = system: T3, NC(=O)c1ccc[n+]([C@@H]2O[C@H](COP(=O)(O)OP(=O)(O)OC[C@H]3O[C@@H](n4cnc5c(N)ncnc54)[C@H](O)[C@@H]3O)[C@@H](O)[C@H]2O)c1; experiment: as above; format: biochemical, Homo sapiens; details: 25 mM sodium lactate, no inhibitor (control), pH 9.6, room temperature, varied: cofactor
T3 construct: commercial recombinant protein (R&D Systems); homotetramer (LDH-1)
Source text: as §1

T1 sequence (P07195 2-334): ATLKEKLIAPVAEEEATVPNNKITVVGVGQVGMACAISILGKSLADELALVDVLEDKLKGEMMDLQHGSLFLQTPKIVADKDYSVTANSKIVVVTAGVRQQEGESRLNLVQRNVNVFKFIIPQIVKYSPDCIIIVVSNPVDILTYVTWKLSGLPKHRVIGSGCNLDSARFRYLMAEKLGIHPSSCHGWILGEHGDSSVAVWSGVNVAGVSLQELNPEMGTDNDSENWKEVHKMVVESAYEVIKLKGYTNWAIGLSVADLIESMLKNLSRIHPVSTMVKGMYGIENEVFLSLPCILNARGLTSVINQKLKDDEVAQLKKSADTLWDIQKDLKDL

| pIC50 [1] | pKi ([2]; read-out: Tucatinib / Lactate) | pKi ([2]; read-out: Capmatinib / Lactate) | Compound | Km [3] | Vmax [3] | Km [4] | Vmax [4] |
| --- | --- | --- | --- | --- | --- | --- | --- |
| 3.30 | 2.53 | – | Cc1cc(Nc2ncnc3ccc(NC4=NC(C)(C)CO4)cc23)ccc1Oc1ccn2ncnc2c1 [compound 1, Tucatinib] | – | – | – | – |
| 3.29 | – | 2.57 | CNC(=O)c1ccc(-c2cnc3ncc(Cc4ccc5ncccc5c4)n3n2)cc1F [compound 2, Capmatinib] | – | – | – | – |
| – | – | – | Recombinant human LDH-B (Homo sapiens) | 18.5 mM | 1050 µM/min | 0.311 mM | 1040 µM/min |
